System: myocardial ischemia (isolated heart, cardiac output)
Assay: Protective action for myocardial ischemia (isolated perfused working heart)
Design: species or system Wistar strain male rats
Excerpt: Protective action for myocardial ischemia
When coronary blood flow transporting nutritions to cardiac muscles is interrupted (disorder in blood flow) or recirculated (disorder in recirculation) by a certain cause, cardiac muscles will be damaged (disorder of mycardial ischemia). The degree of such disorder in cardiac muscles will be advanced as the period of ischemia state is prolonged to cause various ischemic cardiac disorders such as the so-called myocardial infarction and cardiac insufficiency.
Accordingly, the protective effect of the Compound No. 1, as a typical compound, on cardiac muscles were examined as described below.
In the experiment, Wistar strain male rats weighing 300 to 400 g were used. The heart was extirpated into a Krebs-Henseleit bicarbonate (KH) solution which had been oxygenated with 95% O2 -5% CO2, under anesthesia by intraperitoneal administration of 50 mg/kg of pentobarbital sodium. Immediately after the isolation, a cannula was intubated into the aorta ascendens, and perfusion was started according to the Langendorff method (75 cm H2 O). Subsequently, the cannula was intubated into the left artium. Then, perfusion in accordance with the Langerdorff method was further conducted for 10 minutes, and then the left artium cannula was opened change the mode of perfusion to that of the working heart method (preload 10 cm H2 O, afterload 80 cm H2 O) (American Journal of Physiology, 212, 804, 1967), which was conducted for 15 minutes. Next, in accordance with the method of Ichihara et al (Journal of Cardiovascular Pharmacology, 5, 745, 1983), the afterload on the aorta was released to provide an ischemic state in the cardiac muscles for 20 minutes. Since five minutes before the initiation of the ischemic state, the perfusate was changed to the one containing the test medicine and such perfusate was used also during the period of the ischemic state. Reperfusion was conducted for 30 minutes with a perfusate containing no test medicine with the afterload of 80 cm H2 O. In order to determine the cardiac functions, coronal perfusion flow (CF), cardiac output (CO), heart rate (HR), aorta pressure (AP) and rate pressure product (HR×AP) were measured. The CF was measured by use of a 10 ml measuring cylinder. The CO was measured through a direct blood flow measuring probe (Model FF-030, 30, produced by Nihon Kohden K.K.) disposed immediately in front of the left artium cannula, by use of an electromagnetic blood flow meter (Model MFV-2100, produced by Nihon Kohden K.K.) and an amplifier for bioelectricity (Mode AB-621G, produced by Nihon Kohden K.K,). The AP was measured through a pressure transducer (Model MPU-0.5, produced by Nihon Kohden K.K.) connected to the aortic cannula, by use of an amplifier for distortion pressure (Model AP-601G, produced by Nihon Kohden K.K.). The HR was measured by use of an cardiotacho meter (Model AT-601G, produced by Nihon Kohden K.K.). The rate pressure product (HR×AP) was calculated by multiplying the HR by the aortic pressure.
As the perfusate, a KH solution, which had been oxygenated with 95% O2 -5% CO2 and heated to 37° C. was used. The formulation of the KH solution (unit: mM) is as follows. NaCl 118, KCl 4.7, CaCl2 2.5, MgSO4 1.2, KH2 PO4 1.2, NaHCO3 25 and glucose 11. […]
Changes in the cardiac functions after treatment with the test medicine and recovery thereof at reperfusion are indicated in terms of percentage based on the value measured before the treatment with the test medicine. […]

## CC1=NN(c2ccccc2)C(=O)C1 [Compound 1, 3-methyl-1-phenyl-2-pyrazolin-5-one]
  protective action for myocardial ischemia (in words): exhibits protective action for myocardial ischemia
10^-5 M, 30 minutes after reperfusion after 20 min ischemia, N = 5, mean ± standard error (Table 5)
  Recovery of the cardiac output (CO): 23.8 ± 14.6%
30 minutes after reperfusion
  Recovery of the cardiac functions (CO 50% or more), percentage: 40%
30 minutes after reperfusion after 20 min cardiac ischemia
  average recovery action based on the cardiac output (CO): 24%
Hearts recovered/total, 30 minutes after reperfusion
  Number of recovery of the cardiac functions (CO 50% or more): 2/5

— patent publication USRE35801E, “Prophylactic and therapeutic composition for circulatory disorders and method of treatment” (priority 1985, dated 1998)
